ChEMBL document CHEMBL4725281, “Design synthesis and evaluation of novel aldose reductase inhibitors: The case of indolyl-sulfonyl-phenols” (Bioorg Med Chem, 2020)

What was measured:
[1] = molecular target: Aldo-keto reductase family 1 member B1 (Rattus norvegicus, UniProt P07943); experiment: Inhibition of Fischer 344 rat eye lens ALR2 using D,L-glyceraldehyde as substrate measured up to 4 mins at 30 degC using NaHCO3/DMSO-dissolved compound by spectrophotometric analysis
[2] = molecular target: Aldo-keto reductase family 1 member B1 (Rattus norvegicus) (UniProt P07943); experiment: Inhibition of Fischer 344 rat eye lens ALR2 using D,L-glyceraldehyde as substrate measured up to 4 mins at 30 degC NaHCO3/DMSO-dissolved compound at 100 uM by spectrophotometric analysis relative to control; settings: time min <=4
[3] = molecular target: Aldo-keto reductase family 1 member A1 (Rattus norvegicus, UniProt P51635); experiment: Inhibition of Fischer 344 rat kidney ALR1 using sodium D-glucuronate as substrate measured up to 4 mins at […] using NaHCO3/DMSO-dissolved compound by spectrophotometric analysis
Rattus norvegicus = species: Rattus norvegicus; experiment: Selectivity index, ratio of IC50 for Fischer 344 rat kidney ALR1 using sodium D-glucuronate as substrate measured up to 4 mins at 30 degC to IC50 for Fischer 344 rat eye lens ALR2 using D,L-glyceraldehyde as substrate measured up to 4 mins at 30 degC; settings: time min <=4

Sequence of Aldo-keto reductase family 1 member A1 (P51635 whole entry, looked up): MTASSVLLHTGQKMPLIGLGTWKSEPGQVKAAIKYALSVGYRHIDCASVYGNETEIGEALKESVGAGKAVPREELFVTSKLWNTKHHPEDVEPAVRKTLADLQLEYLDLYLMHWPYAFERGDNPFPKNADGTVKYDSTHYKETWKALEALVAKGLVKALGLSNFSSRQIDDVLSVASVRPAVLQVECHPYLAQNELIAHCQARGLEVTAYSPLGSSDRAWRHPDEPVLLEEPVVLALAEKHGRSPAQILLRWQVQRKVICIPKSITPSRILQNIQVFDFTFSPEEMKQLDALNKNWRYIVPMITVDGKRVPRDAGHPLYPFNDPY

Row | IC50 [1] | inhibition [2] | IC50 [3] | Ratio IC50 (Rattus norvegicus) | Compound
1 | 4.51 µM | – | 4.73 µM | 1.05 | O=S(=O)(c1ccc(O)cc1)n1ccc2ccccc21
2 | 14.2 µM | – | – | – | O=S(=O)(c1ccccc1O)n1ccc2ccccc21

The remaining lines, values behind:

Row | Compound | IC50 [1] | inhibition [2] | IC50 [3] | Ratio IC50 (Rattus norvegicus)
3 | O=S(=O)(c1ccc(O)cc1)c1cc2ccccc2[nH]1 | 37.3 µM | – | – | –
4 | O=S(=O)(c1ccccc1O)c1c[nH]c2ccccc12 | – | 14.6% | – | –
5 | O=S(=O)(c1cc2ccccc2[nH]1)c1ccccc1O | – | 12.3% | – | –
6 | O=S(=O)(c1ccc(O)c(F)c1)n1ccc2ccccc21 | 0.98 µM | – | 11.7 µM | 11.9
7 | O=S(=O)(c1ccc(O)cc1)c1c[nH]c2ccccc12 | 59.6 µM | – | – | –
